Data set [1] deals with T1, MtUPRT (Mycobacterium tuberculosis, UniProt P9WFF3). Kind of data set: Evaluation of nucleotides as allosteric effectors. In kind it is biochemical. The following applies: for activation or inhibition of MtUPRT: 500 µM nucleotide, 128 s.
For a further data set, the system named is S. solfataricus UPRT. On the set-up: method as in PMID 15752360. The following applies: cited from earlier work.
Data set [2] concerns the target T1, MtUPRT. The data set can be described thus: Steady-state kinetics of MtUPRT, continuous spectrophotometric assay (uracil to UMP, 280 nm). In kind it is biochemical. The note with it: for k cat/K (true steady-state) / true steady-state K (K PRPP, K uracil): initial velocity pattern, varying PRPP at fixed-varying uracil; for true steady-state K (K PRPP, K uracil): sequential mechanism fit.

Data set [3] deals with T1, MtUPRT. Kind of data set: biochemical. In kind it is binding. The following applies: for Kd: K d; for ΔG / ΔH / ΔS: reverse titration, 25°C.
The target of data set [4] is MtUPRT:PRPP binary complex (Mycobacterium tuberculosis, UniProt P9WFF3). Kind of data set: Isothermal titration calorimetry of GTP binding to PRPP bound enzyme. The following applies: 10 mM GTP titrated; MtUPRT 139 µM incubated with 100 µM PRPP for 1 hour. As to the method: Furthermore, no binding of GTP either to the free enzyme or to the PRPP bound enzyme was detected by ITC (data not shown). The incubation of PRPP with MtUPRT prior to the titration of GTP was tested to determine whether the binding of PRPP to MtUPRT generates conformational changes on the enzyme that could enable GTP binding. However, no binding of GTP to MtUPRT:PRPP binary complex could be detected (data now shown).
ITC experiments were carried out using an iTC200 Microcalorimeter (MicroCal Inc). Ligands and enzyme were prepared in 100 mM Hepes pH 7.5 containing 10 mM MgCl2. For direct titrations the sample cell was filled with 139 µM of MtUPRT (200 µL) and titrated (39.7 µL) with different concentrations of either substrates or products: 200 µM of uracil, 500 µM of PRPP, 500 µM of UMP, and 350 µM of PPi. In addition, titration was performed with 10 mM of GTP and the sample cell was filled with either free MtUPRT (139 µM) or MtUPRT (139 µM) incubated with 100 µM PRPP for 1 hour before starting the measurements. Reverse titrations were also carried out where the sample cell was filled with either 90 µM of PRPP or 150 µM of UMP and titrated with 633 µM of UPRT.
A stirring speed of 500 rpm and a temperature of 25°C were employed for all ITC experiments. […] The experimental data were evaluated using the Origin 7 SR4 software (MicroCal).

A further data set relates to E. coli UPRT. On the set-up: method as in PMID 8856065. The following applies: without affecting V max; cited from earlier work.
In a further data set the test system is G. intestinalis UPRT. Set-up: method as in PMID 7622327. The note with it: cited from earlier work.
The test system of a further data set is UPRT from T. gondii. On the set-up: method as in PMID 11773618. The note with it: also stabilizes the more active tetrameric form; cited from earlier work.
Data set [5] has as its target T1, MtUPRT. Kind of data set: Evaluation of pyrimidine bases as substrates, discontinuous assay (HPLC, LC-ESI-MS/MS). It is filed as biochemical. The note with it: 0.1 mM base, 1 mM PRPP, 37°C 30 min, confirmed by LC-ESI-MS/MS. As to the method:
Uracil, thymine and cytosine pyrimidine bases were evaluated as possible MtUPRT substrates. The bases were added to MtUPRT reaction mixtures and protein separated by ultrafiltration, and product formation analyzed by HPLC monitoring absorbance at 254, 260, and 280 nm. […] The MtUPRT enzyme activity measurements henceforth described were carried out using uracil as substrate and a continuous spectrophotometric assay.
Reaction mixtures containing 50 mM Tris pH 7.8, 10 mM MgCl2, 1 mM PRPP, and 0.1 mM of the pyrimidine base to be tested (uracil, cytosine, or thymine) were initiated by the addition of 54 nM of homogeneous MtUPRT. The reactions were incubated at 37°C for 30 min and then boiled for 3 min to stop the reaction. The mixtures were passed through a Centricon (10,000 Da molecular weight cut off) to remove the protein content prior to analysis. The nucleotide contents of the samples were analyzed using an HPLC Äkta Purifier system and a Sephasil peptide C18 5 µm ST 4.6/250 column. A 500 µL aliquot of each sample was loaded on the column and adsorbed material isocratically eluted with 5 mM potassium phosphate pH 4.0 containing 5% acetonitrile for 10 min at 1 mL min^−1flow rate. Nucleotides and bases were monitored at 254, 260, and 280 nm.
Another method used to analyze the nucleotide content was the LC-ESI-MS/MS. This experiment was employed to confirm results obtained in the analysis described above. The chromatography was carried out with an Eclipse plus C18 4.6/150 column (Agilent). The injected sample volume was 20 µL, which was eluted isocratically with 10 mM ammonium acetate containing 40% acetonitrile at 0.8 ml min^−1 flow rate. The LC detector was an ESI coupled to the 3200 Q-Trap (Applied Biosystems MDS SCIEX), employing the ESI-MS/MS parameters as described by others. During the chromatography run, precursor ion scan (Prec) and enhance product ion scan (EPI) were monitored. Prec monitored precursors of mass over charge ratio (m/z) of compounds containing a phosphate group (H2PO4 ^−, m/z 97) and EPI gave the fragmentation spectra of the nucleotides m/z.

Another data set relates to B. caldolyticus UPRT. Set-up: method as in PMID 9268683. The following applies: hyperbolic saturation curve; cited from earlier work.
The data set “AUC” deals with the molecule itself. The data set can be described thus: AUC.
The mark [6] stands for this setting: PRPP variable substrate, fixed-saturating uracil 35 µM.
Where [7] appears, read: in the presence of 100 µM GTP, PRPP variable substrate, uracil 35 µM.
[8] abbreviates: in the presence of 100 µM GTP, uracil variable substrate, PRPP 350 µM.
Where [9] appears, read: uracil variable substrate, fixed-saturating PRPP 350 µM.

“And” between values parts separate entries of the source, which are not always exact repeats. Identical values can stand only once.

`Nc1ncnc2c1ncn2[C@@H]1O[C@H](COP(=O)(O)OP(=O)(O)OP(=O)(O)O)[C@@H](O)[C@H]1O` [ATP, adenosine 5′-triphosphate]: the “activation or inhibition of MtUPRT” value on MtUPRT [1] (350 µM PRPP, 35 µM uracil) is “not significantly activated or inhibited”.

Consider `Nc1ccn([C@@H]2O[C@H](COP(=O)(O)OP(=O)(O)OP(=O)(O)O)[C@@H](O)[C@H]2O)c(=O)n1` [CTP, cytidine 5′-triphosphate], for which the “effect on UMP inhibition of MtUPRT” value at MtUPRT [1] (500 µM CTP together with 100 µM UMP) is “no increase in UMP inhibition occurred”. Moreover, the “activation or inhibition of MtUPRT” value at MtUPRT [1] (350 µM PRPP, 35 µM uracil) is recorded as “not significantly activated or inhibited”. Moreover, in the data set with S. solfataricus UPRT (in the presence of UMP), the “effect of CTP on activity” value is reported as “inhibited the enzyme”.

Turning to `Nc1nc2c(ncn2[C@@H]2O[C@H](COP(=O)(O)OP(=O)(O)OP(=O)(O)O)[C@@H](O)[C@H]2O)c(=O)[nH]1` [GTP, guanosine 5′-triphosphate], the “effect on kinetic parameters for MtUPRT” value at MtUPRT [2] (100 µM GTP) is listed as “not affected”. Besides, the “activation or inhibition of MtUPRT” value on MtUPRT [1] (350 µM PRPP, 35 µM uracil) is on record as “not significantly activated or inhibited”. Besides, on MtUPRT [3], the “binding to free MtUPRT enzyme (heat changes)” value is on record as “no binding”. The “binding to MtUPRT:PRPP binary complex” value in data set [4] was “no binding”. Besides, the “effect of GTP on kinetic parameters” value in the data set with E. coli UPRT was “lowered the K M value for PRPP”. In addition, the results for the “effect of GTP on activity” value in the data set with G. intestinalis UPRT and with UPRT from T. gondii were “dramatic increase in the activity” and “activated by GTP”, respectively. The “effect of GTP on k cat and K M for PRPP and uracil” value in the data set with S. solfataricus UPRT was “increase k cat and K M values”.

Consider `O=P(O)(O)OP(=O)(O)O` [PPi, pyrophosphate], for which the “binding to free MtUPRT enzyme (heat changes)” value at MtUPRT [3] was “no significant heat changes”.

For orientation: Kd means the constant that tells how readily two partners part at equilibrium. A low value points to tighter binding. With `O=P(O)(O)OC[C@H]1O[C@H](OP(=O)(O)OP(=O)(O)O)[C@H](O)[C@@H]1O` [PRPP, 5-phosphoribosyl-α-1-pyrophosphate], at MtUPRT [2] (setting [6]), the “apparent V max” value was 1.75±0.02 U mg^−1 and the apparent k cat was determined as 0.65 ± 0.01 s⁻¹. Also, on MtUPRT [2] (PRPP variable substrate, fixed-saturating uracil 35 µM, Michaelis-Menten fit), the “apparent K M” value turned out to be 12.4 ± 0.6 µM. Also, on MtUPRT [2] (setting [7]), the “apparent K M” value turned out to be 17 ± 2 µM, the “apparent V max” value was 1.60±0.04 U mg^−1 and the apparent k cat is 0.59 ± 0.01 s⁻¹. On MtUPRT [2], the “k cat/K (true steady-state)” value is recorded as 4.1 (±0.2)×10^4 M^−1 s^−1 and the “true steady-state K (K PRPP, K uracil)” value is 14 ± 1 µM. The Kd on MtUPRT [3] was 5 µM and 48 µM and 6 µM and 9 µM. Also, on MtUPRT [3] (Subunit 1), the ΔG is -7 ± 1 kcal/mol, the ΔH is 2.8 ± 0.3 kcal/mol and the ΔS was determined as 34±6 cal mol^−1 deg^−1. Also, on MtUPRT [3] (Subunit 2), the ΔG was -6 ± 2 kcal/mol, the ΔH is -3 ± 16 kcal/mol and the ΔS amounted to 10±3 cal mol^−1 deg^−1. Also, at MtUPRT [3] (Subunit 3), the ΔG was -7 ± 2 kcal/mol, the ΔH is -41 ± 32 kcal/mol and the ΔS is listed as −114±33 cal mol^−1 deg^−1. Moreover, at MtUPRT [3] (Subunit 4), the ΔG is -7 ± 3 kcal/mol, the ΔH turned out to be 58 ± 22 kcal/mol and the ΔS is 217±85 cal mol^−1 deg^−1. Besides, the K a on MtUPRT [3] (pH 7.5) is 2.0 (±3.6)×10^5 M^−1 and 2.1 (±0.6)×10^4 M^−1 and 1.6 (±0.5)×10^5 M^−1 and 1.1 (±0.4)×10^5 M^−1.

Take `O=c1ccn([C@@H]2O[C@H](COP(=O)(O)O)[C@@H](O)[C@H]2O)c(=O)[nH]1` [UMP, uridine 5′-monophosphate]: the “inhibition of MtUPRT” value against MtUPRT [1] (100 µM UMP, 350 µM PRPP, 35 µM uracil) is recorded as “enzyme inhibition was observed”. The equilibrium dissociation constant (Kd) on MtUPRT [3] was 7 µM and 8 µM and 13 µM and 14 µM. Further, the ΔG on MtUPRT [3] (Subunit 1) is -7 ± 2 kcal/mol; on MtUPRT [3] (Subunit 2) it was -7 ± 2 kcal/mol; on MtUPRT [3] (Subunit 3), -7 ± 3 kcal/mol; at MtUPRT [3] (Subunit 4) it was -7 ± 2 kcal/mol. Also, the ΔH is -5.1 ± 0.4 kcal/mol at MtUPRT [3] (Subunit 1), 6 ± 3 kcal/mol at MtUPRT [3] (Subunit 2), -24 ± 11 kcal/mol at MtUPRT [3] (Subunit 3) and 28 ± 18 kcal/mol on MtUPRT [3] (Subunit 4). The ΔS at MtUPRT [3] (Subunit 1) is 5±1 cal mol^−1 deg^−1; on MtUPRT [3] (Subunit 2), 45±16 cal mol^−1 deg^−1; at MtUPRT [3] (Subunit 3), −56±21 cal mol^−1 deg^−1; on MtUPRT [3] (Subunit 4) it was 117±43 cal mol^−1 deg^−1.

With `O=c1ccn([C@@H]2O[C@H](COP(=O)(O)OP(=O)(O)OP(=O)(O)O)[C@@H](O)[C@H]2O)c(=O)[nH]1` [UTP, uridine 5′-triphosphate], the “activation or inhibition of MtUPRT” value on MtUPRT [1] (350 µM PRPP, 35 µM uracil) is reported as “not significantly activated or inhibited”.

For the molecule `Nc1cc[nH]c(=O)n1` [cytosine], the “substrate activity (product formation)” value on MtUPRT [5] was “no product formation could be detected”.

Take `Cc1c[nH]c(=O)[nH]c1=O` [thymine]: the “substrate activity (product formation)” value at MtUPRT [5] is listed as “no product formation could be detected”.

Regarding `O=c1cc[nH]c(=O)[nH]1` [uracil], at MtUPRT [2] (setting [8]), the “K 0.5” value came out at 2.9 ± 0.1 µM, the “apparent V max” value is 1.54±0.02 U mg^−1, the apparent k cat was 0.57 ± 0.01 s⁻¹ and the “n (Hill coefficient)” value is 2.2±0.1. Moreover, on MtUPRT [2], the “k cat/K (true steady-state)” value is 2.2 (±0.3)×10^5 M^−1 s^−1 and the “true steady-state K (K PRPP, K uracil)” value is 2.6 ± 0.4 µM. In addition, at MtUPRT [2] (setting [9]), the “apparent V max” value worked out at 1.73±0.03 U mg^−1, the apparent k cat was 0.64 ± 0.01 s⁻¹ and the “n (Hill coefficient)” value is 1.9±0.1. Further, the “K 0.5” value at MtUPRT [2] (uracil variable substrate, fixed-saturating PRPP 350 µM, Hill fit) turned out to be 3.6 ± 0.1 µM. The “substrate activity (product formation)” value at MtUPRT [5] is reported as “specific for uracil”. Moreover, the “binding to free MtUPRT enzyme (heat changes)” value at MtUPRT [3] is recorded as “no significant heat changes”. The “K M for uracil” value in the data set with B. caldolyticus UPRT is 2 µM.

B1: Uracil phosphoribosyltransferase from Mycobacterium tuberculosis (enzyme)
chain: MQVHVVDHPLAAARLTTLRDERTDNAGFRAALRELTLLLIYEATRDAPCEPVPIRTPLAETVGSRLTKPPLLVPVLRAGLGMVDEAHAALPEAHVGFVGVARDEQTHQPVPYLDSLPDDLTDVPVMVLDPMVATGGSMTHTLGLLISRGAADITVLCVVAAPEGIAALQKAAPNVRLFTAAIDEGLNEVAYIVPGLGDAGDRQFGPR
notes: also called MtUPRT; UPRT
As a reminder, the stoichiometry N is the number of molecules, sites or subunits per partner or assembly. In the case of B1, in the data set “AUC”, the Kd is ~1 µM and the “stoichiometry N” value is 4.

Values taken from publication PMC3570474, “Biochemical Characterization of Uracil Phosphoribosyltransferase from Mycobacterium tuberculosis” (PLoS ONE, 2013).
